Test system: VEGF
Assay: Serial free VEGF levels in patients on HD IL-2
Type: in vivo, human
Conditions: four patients, single bevacizumab infusion two weeks prior to HD IL-2
Description: Over a 6 month period at Beth Israel Deaconess Medical Center we prospectively collected discarded serum and plasma samples from oncology patients receiving high dose IL-2. […] After detailing these promising results, we then collected bloods before IL-2 infusion and with each successive days morning labs. Whenever possible, we also obtained discarded blood from all follow up outpatient appointments. All identifying information was removed and data was encoded to protect patient privacy. Clinical data was collected on each patient by chart review. This study was approved by the institutional IRB.

bevacizumab: a neutralizing antibody to VEGF
free VEGF levels: low throughout protocol

From US20130252821A1, “METHODS AND COMPOSITIONS FOR THE TREATMENT AND DIAGNOSIS OF DISEASES CHARACTERIZED BY VASCULAR LEAK, HYPOTENSION, OR A PROCOAGULANT STATE” (Beth Israel Deaconess Medical Center, Inc., priority 2005, published 2013)
